Experimental data: ChEMBL document CHEMBL5608235, “Tricyclic Benzo[1,3]oxazinyloxazolidinones as Potent Antibacterial Agents against Drug-Resistant Pathogens” (J Med Chem, 2024)
Values after ≈ are worked out from the molar mass of the structure shown.

What was measured:
[1] = Free AUC in BALB/c mouse at 10 mg/kg,po administration measured upto 24 hrs by LC-MS/MS analysis; assay type: ADME, organism-based; conditions: in vivo
[2] = Tmax in BALB/c mouse at 10 mg/kg,po administration measured upto 24 hrs by LC-MS/MS analysis; assay type: ADME, organism-based; conditions: in vivo
[3] = Metabolic stability in ICR mouse liver microsomes assessed as substrate remaining at 10 uM incubated for 60 mins in presence of NADPH by LC-MS/MS analysis; assay type: ADME, Microsome; conditions: read-out: Stability
[4] = tested on: Staphylococcus aureus; test: Antibacterial activity against Staphylococcus aureus ATCC25923 assessed as inhibition of bacterial growth incubated for 18 hrs by microdilution broth assay; assay type: functional
[5] = tested on: Enterococcus faecalis; test: Antibacterial activity against Linezolid resistant Enterococcus faecalis clinical isolate 20-2 assessed as inhibition of bacterial growth incubated for 7 days by alamar blue assay; assay type: functional; conditions: clinical isolate 20-2, 168 h, time 7 day
[6] = Metabolic stability in human liver microsomes assessed as compound remaining at 10 uM incubated for 60 mins in absence of NADPH by LC-MS/MS analysis; assay type: ADME, Microsome; conditions: read-out: Stability
[7] = tested on: Staphylococcus epidermidis; test: Antibacterial activity against methicillin resistant Staphylococcus epidermidis clinical isolate 20-2 assessed as inhibition of bacterial growth incubated for 7 days by alamar blue assay; assay type: functional; conditions: clinical isolate 20-2, 168 h, time 7 day
[8] = tested on: Staphylococcus epidermidis; test: Antibacterial activity against Staphylococcus epidermidis ATCC12228 assessed as inhibition of bacterial growth incubated for 18 hrs by microdilution broth assay; assay type: functional
[9] = tested on: Staphylococcus epidermidis; test: Antibacterial activity against methicillin resistant Staphylococcus epidermidis clinical isolate 20-1 assessed as inhibition of bacterial growth incubated for 7 days by alamar blue assay; assay type: functional; conditions: clinical isolate 20-1, 168 h, time 7 day
[10] = tested on: Mycobacterium tuberculosis; test: Antibacterial activity against Mycobacterium tuberculosis H37Rv assessed as inhibition of bacterial growth incubated for 7 days by alamar blue assay; assay type: functional; conditions: 168 h, time 7 day
[11] = tested on: Enterococcus; test: Antibacterial activity against vancomycin resistant Enterococcus clinical isolate 20-1 assessed as inhibition of bacterial growth incubated for 7 days by alamar blue assay; assay type: functional; conditions: clinical isolate 20-1, 168 h, time 7 day
[12] = Metabolic stability in human liver microsomes assessed as substrate remaining at 10 uM incubated for 60 mins in presence of NADPH by LC-MS/MS analysis; assay type: ADME, Microsome; conditions: read-out: Stability
[13] = MRT (0 to infinity) in BALB/c mouse at 10 mg/kg,po administration measured upto 24 hrs by LC-MS/MS analysis; assay type: ADME, organism-based; conditions: in vivo
[14] = Drug concentration in BALB/c mouse plasma at 10 mg/kg,po administration measured within 15 mins by LC-MS/MS analysis; assay type: ADME, organism-based
[15] = AUC (0 to infinity) in BALB/c mouse at 1 mg/kg,iv administration measured upto 24 hrs by LC-MS/MS analysis; assay type: ADME, organism-based; conditions: in vivo, iv, 1 mg/kg, 24 h
[16] = Cmax in BALB/c mouse at 10 mg/kg,po administration measured upto 24 hrs by LC-MS/MS analysis; assay type: ADME, organism-based; conditions: in vivo
[17] = MRT (0 to t) in BALB/c mouse at 1 mg/kg,iv administration measured upto 24 hrs by LC-MS/MS analysis; assay type: ADME, organism-based; conditions: in vivo
[18] = tested on: Staphylococcus aureus; test: Antibacterial activity against vancomycin intermediate Staphylococcus aureus ATCC700699 assessed as inhibition of bacterial growth incubated for 7 days by alamar blue assay; assay type: functional; conditions: ATCC700699, 168 h, time 7 day
[19] = tested on: Staphylococcus aureus; test: Antibacterial activity against methicillin resistant Staphylococcus aureus clinical isolate 20-1 assessed as inhibition of bacterial growth incubated for 7 days by alamar blue assay; assay type: functional; conditions: clinical isolate 20-1, 168 h, time 7 day
[20] = tested on: Staphylococcus aureus; test: Antibacterial activity against Linezolid resistant Staphylococcus aureus clinical isolate 20-2 assessed as inhibition of bacterial growth incubated for 7 days by alamar blue assay; assay type: functional; conditions: clinical isolate 20-2, 168 h, time 7 day
[21] = Plasma protein binding in BALB/c mouse at 1 mg/kg,iv administration measured upto 24 hrs by LC-MS/MS analysis; assay type: ADME, organism-based; conditions: read-out: PPB (converted)
[22] = tested on: Enterococcus faecalis; test: Antibacterial activity against Linezolid resistant Enterococcus faecalis clinical isolate 20-1 assessed as inhibition of bacterial growth incubated for 7 days by alamar blue assay; assay type: functional; conditions: clinical isolate 20-1, 168 h, time 7 day
[23] = Cytotoxicity against African green monkey Vero cells incubated for 48 hrs by MTT assay; assay type: toxicity, cell-based, Chlorocebus sabaeus
[24] = Volume of distribution in BALB/c mouse at 1 mg/kg,iv administration measured upto 24 hrs by LC-MS/MS analysis; assay type: ADME, organism-based; conditions: in vivo
[25] = Terminal half life in BALB/c mouse at 10 mg/kg,po administration measured upto 24 hrs by LC-MS/MS analysis; assay type: ADME, organism-based; conditions: in vivo, read-out: beta t1/2 (converted)
[26] = AUC (0 to infinity) in BALB/c mouse at 10 mg/kg,po administration measured upto 24 hrs by LC-MS/MS analysis; assay type: ADME, organism-based; conditions: in vivo, po, 10 mg/kg, 24 h
[27] = Clearance in BALB/c mouse at 1 mg/kg,iv administration measured upto 24 hrs by LC-MS/MS analysis; assay type: ADME, organism-based; conditions: in vivo
[28] = tested on: Enterococcus faecalis; test: Antibacterial activity against Enterococcus faecalis ATCC29212 assessed as inhibition of bacterial growth incubated for 18 hrs by microdilution broth assay; assay type: functional
[29] = MRT (0 to t) in BALB/c mouse at 10 mg/kg,po administration measured upto 24 hrs by LC-MS/MS analysis; assay type: ADME, organism-based; conditions: in vivo
[30] = Terminal half life in BALB/c mouse at 1 mg/kg,iv administration measured upto 24 hrs by LC-MS/MS analysis; assay type: ADME, organism-based; conditions: in vivo, read-out: beta t1/2 (converted)
[31] = Drug concentration in BALB/c mouse plasma at 10 mg/kg,po administration measured after 24 hrs by LC-MS/MS analysis; assay type: ADME, organism-based; conditions: in vivo
[32] = MRT (0 to infinity) in BALB/c mouse at 1 mg/kg,iv administration measured upto 24 hrs by LC-MS/MS analysis; assay type: ADME, organism-based; conditions: in vivo
[33] = AUC (0 to t) in BALB/c mouse at 1 mg/kg,iv administration measured upto 24 hrs by LC-MS/MS analysis; assay type: ADME, organism-based; conditions: in vivo
[34] = Oral bioavailability in BALB/c mouse at 10 mg/kg administration measured upto 24 hrs by LC-MS/MS analysis; assay type: ADME, organism-based; conditions: in vivo, po, 10 mg/kg, 24 h
[35] = tested on: Staphylococcus aureus; test: Antibacterial activity against methicillin resistant Staphylococcus aureus clinical isolate 20-2 assessed as inhibition of bacterial growth incubated for 7 days by alamar blue assay; assay type: functional; conditions: clinical isolate 20-2, 168 h, time 7 day
[36] = tested on: Bacillus subtilis; test: Antibacterial activity against Bacillus subtilis ATCC6633 assessed as inhibition of bacterial growth incubated for 18 hrs by microdilution broth assay; assay type: functional
[37] = Cmax in BALB/c mouse at 1 mg/kg,iv administration measured upto 24 hrs by LC-MS/MS analysis; assay type: ADME, organism-based; conditions: in vivo
[38] = Metabolic stability in ICR mouse liver microsomes assessed as compound remaining at 10 uM incubated for 60 mins in absence of NADPH by LC-MS/MS analysis; assay type: ADME, Microsome; conditions: read-out: Stability
[39] = tested on: Staphylococcus aureus; test: Antibacterial activity against Linezolid resistant Staphylococcus aureus clinical isolate 20-1 assessed as inhibition of bacterial growth incubated for 7 days by alamar blue assay; assay type: functional; conditions: clinical isolate 20-1, 168 h, time 7 day
[40] = AUC (0 to t) in BALB/c mouse at 10 mg/kg,po administration measured upto 24 hrs by LC-MS/MS analysis; assay type: ADME, organism-based; conditions: in vivo

SMILES: COC(=O)NC[C@@H]1OC(=O)N2Cc3cc(-c4ccc(C#N)cc4)c(F)cc3O[C@@H]12
- fAUC [1]: 9450 ng·h/mL
- Tmax [2]: 4 h
- remaining at 1 h, 10 µM [3]: 114%
- MIC [4]: 2 µg/mL (≈ 5.03 µM)
- MIC [5]: 2 µg/mL (≈ 5.03 µM)
- remaining at 1 h, 10 µM [6]: 108%
- MIC [7]: 0.125 µg/mL (≈ 0.315 µM)
- MIC [8]: 0.032 µg/mL (≈ 0.0805 µM)
- MIC [9]: 0.125 µg/mL (≈ 0.315 µM)
- MIC [10]: 0.73 µg/mL (≈ 1.84 µM)
- MIC [11]: 0.5 µg/mL (≈ 1.26 µM)
- remaining at 1 h, 10 µM [12]: 113%
- MRT inf [13]: 70.9 h
- concentration at 0.25 h [14]: 1000 ng/mL
- AUC [15]: 6893 ng·h/mL
- Cmax [16]: 2790 ng/mL
- MRT last at 24 h [17]: 8.1 h
- MIC [18]: 0.5 µg/mL (≈ 1.26 µM)
- MIC [19]: 0.5 µg/mL (≈ 1.26 µM)
- MIC [20]: 8 µg/mL (≈ 20.1 µM)
- fraction unbound at 24 h [21]: 0.174
- MIC [22]: 2 µg/mL (≈ 5.03 µM)
- IC50 at 48 h [23]: > 64 µg/mL
- Vd [24]: 0.818 L/kg
- half-life [25]: 49.3 h
- AUC [26]: 188361 ng·h/mL
- clearance [27]: 2.42 mL/min/kg
- MIC [28]: 0.25 µg/mL (≈ 0.629 µM)
- MRT last at 24 h [29]: 11.3 h
- half-life [30]: 3.9 h
- Drug uptake [31]: > 60%
- MRT inf [32]: 8.4 h
- AUC(0-t) at 24 h [33]: 6810 ng·h/mL
- F [34]: 79.8%
- MIC [35]: 0.5 µg/mL (≈ 1.26 µM)
- MIC [36]: 0.063 µg/mL (≈ 0.159 µM)
- Cmax [37]: 514 ng/mL
- remaining at 1 h, 10 µM [38]: 112%
- MIC [39]: 8 µg/mL (≈ 20.1 µM)
- AUC(0-t) at 24 h [40]: 54300 ng·h/mL
